Measured values as given in patent US20170260185A1 (priority 2014, published 2017).
Structures can show the parent of a compound that is named as a salt. Where two headings read alike, the source gives them in different places.

Key:
[1] = target: T1, human dopamine transporter (DAT) (Homo sapiens, UniProt Q01959); test: Scintillation Proximity Assay (SPA) competition binding, [3H]WIN-35,428, hDAT-CHO membranes
T1 construct: expressed in transfected cells; host or cells: CHO (hDAT-CHO), membrane preparation

[2] = target: T2, human serotonin transporter (SERT) (Homo sapiens, UniProt P31645); test: Scintillation Proximity Assay (SPA) competition binding, [3H]citalopram, hSERT-CHO membranes
T2 construct: expressed in transfected cells; host or cells: CHO (hSERT-CHO), membrane preparation

[3] = target: T3, human norepinephrine transporter (NET) (Homo sapiens, UniProt P23975); test: Scintillation Proximity Assay (SPA) competition binding, [3H]nisoxetine, hNET-CHO membranes
T3 construct: expressed in transfected cells; host or cells: CHO (hNET-CHO), membrane preparation

[4] = target: human ERG potassium channel (hERG) (Homo sapiens, UniProt Q12809); test: cell-based
Method: Measure of the Effect on hERG Channel by Tail Current Recording Using In Vitro Rapid ICE™
The potency of the compounds of the invention in inhibiting human ERG potassium channel (hERG) tail current is assessed in a recombinant HEK293 cell line stably transfected with hERG cDNA using Rapid ICE™ (Rapid Ion Channel Electrophysiology) assay. Rapid ICE™ is an automated patch-clamp assay utilizing the PatchXpress 7000A system (Molecular Devices Corporation) or the QPatch HTX system (Sophion Bioscience A/S).
Briefly cells are cultivated for 24 to 72 hours before recordings in minimum essential medium supplemented with 10% FBS, 1% non-essential amino acids, 1% sodium pyruvate, 2 mM L-glutamine. The day of the experiment cells are detached with TrypLE and prepared to be loaded on the instrument. For PatchXpress cells are finally resuspended in 150 μl of Extracellular Buffer whereas for QPatch cells are resuspended in 7 ml Serum-Free Media containing 25 mM Hepes and Soybean trypsin inhibitor and immediately placed in the cell storage tank of the machine. The composition of the Extracellular Buffer is (mM): NaCl 137; KCl 4; CaCl2 1.8; MgCl2 1.0; D-glucose 10; N 2 hydroxyethylpiperazine-N′-2-ethanesulfonic acid (HEPES) 10; pH 7.4 with 1 M NaOH. The composition of the pipette solution is (mM): KCl 130; MgCl2 1.0; Ethylene glycol-bis(R-aminoethyl ether)-N,N,N′,N′-tetraacetic acid (EGTA) 5; MgATP 5; HEPES 10; pH 7.2 with 1 M KOH. The voltage protocol includes the following steps: step from −80 mV to −50 mV for 200 ms, +20 mV for 4.8 s, step to −50 mV for 5 s then step to the holding potential of −80 mV. Compounds of the invention are dissolved in DMSO and diluted in Extracellular Buffer to achieve final test concentrations (0.1, 1 and 10 μM) in 0.1% DMSO. The voltage protocol is run and recorded continuously during the experiment. The vehicle, corresponding to 0.1% DMSO in Extracellular Buffer, is then applied for 3 min followed by the test substance in triplicate. The standard combined exposure time is 5 min. The average of tail current amplitude values recorded from 4 sequential voltage pulses is used to calculate for each cell the effect of the test substance by calculating the residual current (% control) compared with vehicle pre-treatment. Data are reported as % inhibition for each concentration tested and IC50 values are estimated using DataXpress or QPatch software. At least two cells are tested, more if results diverge.

[5] = read-out: pIC50 DAT (converted)
[6] = hERG tail current, HEK293 cells, read-out: pIC50 hERG (converted)

T3 sequence (P23975 whole entry): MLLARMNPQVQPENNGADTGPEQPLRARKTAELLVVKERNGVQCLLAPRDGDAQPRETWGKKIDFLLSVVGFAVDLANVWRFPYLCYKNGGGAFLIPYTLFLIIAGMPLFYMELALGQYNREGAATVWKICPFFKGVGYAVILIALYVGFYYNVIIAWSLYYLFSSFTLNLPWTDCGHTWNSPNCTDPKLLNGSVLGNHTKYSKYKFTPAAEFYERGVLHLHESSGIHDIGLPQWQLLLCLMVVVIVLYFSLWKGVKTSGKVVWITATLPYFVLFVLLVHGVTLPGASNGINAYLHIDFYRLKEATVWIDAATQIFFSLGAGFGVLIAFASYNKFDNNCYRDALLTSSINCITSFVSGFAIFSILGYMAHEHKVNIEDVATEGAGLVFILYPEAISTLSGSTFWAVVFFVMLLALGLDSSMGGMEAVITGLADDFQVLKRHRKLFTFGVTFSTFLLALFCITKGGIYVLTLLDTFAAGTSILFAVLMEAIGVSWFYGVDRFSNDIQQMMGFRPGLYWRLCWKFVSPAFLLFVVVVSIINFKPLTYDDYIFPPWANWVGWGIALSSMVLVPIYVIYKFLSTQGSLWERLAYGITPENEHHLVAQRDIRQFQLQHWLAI
T2 sequence (P31645 whole entry): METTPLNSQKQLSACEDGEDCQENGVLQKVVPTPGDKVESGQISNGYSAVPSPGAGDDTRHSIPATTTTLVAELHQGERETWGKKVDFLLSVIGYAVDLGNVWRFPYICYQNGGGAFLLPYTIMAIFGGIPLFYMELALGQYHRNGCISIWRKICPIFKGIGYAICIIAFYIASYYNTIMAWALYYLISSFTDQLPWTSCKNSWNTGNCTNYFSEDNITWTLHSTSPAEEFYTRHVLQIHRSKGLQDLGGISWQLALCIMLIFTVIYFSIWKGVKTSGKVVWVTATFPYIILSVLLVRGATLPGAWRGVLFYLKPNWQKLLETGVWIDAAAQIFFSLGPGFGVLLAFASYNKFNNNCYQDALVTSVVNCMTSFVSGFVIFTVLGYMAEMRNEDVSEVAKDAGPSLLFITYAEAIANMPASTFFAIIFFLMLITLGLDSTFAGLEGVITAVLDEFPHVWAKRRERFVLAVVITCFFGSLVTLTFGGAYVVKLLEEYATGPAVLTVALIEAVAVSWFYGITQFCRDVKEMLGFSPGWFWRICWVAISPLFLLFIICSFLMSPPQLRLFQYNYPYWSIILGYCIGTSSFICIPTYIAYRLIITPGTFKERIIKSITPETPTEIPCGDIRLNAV
T1 sequence (Q01959 whole entry): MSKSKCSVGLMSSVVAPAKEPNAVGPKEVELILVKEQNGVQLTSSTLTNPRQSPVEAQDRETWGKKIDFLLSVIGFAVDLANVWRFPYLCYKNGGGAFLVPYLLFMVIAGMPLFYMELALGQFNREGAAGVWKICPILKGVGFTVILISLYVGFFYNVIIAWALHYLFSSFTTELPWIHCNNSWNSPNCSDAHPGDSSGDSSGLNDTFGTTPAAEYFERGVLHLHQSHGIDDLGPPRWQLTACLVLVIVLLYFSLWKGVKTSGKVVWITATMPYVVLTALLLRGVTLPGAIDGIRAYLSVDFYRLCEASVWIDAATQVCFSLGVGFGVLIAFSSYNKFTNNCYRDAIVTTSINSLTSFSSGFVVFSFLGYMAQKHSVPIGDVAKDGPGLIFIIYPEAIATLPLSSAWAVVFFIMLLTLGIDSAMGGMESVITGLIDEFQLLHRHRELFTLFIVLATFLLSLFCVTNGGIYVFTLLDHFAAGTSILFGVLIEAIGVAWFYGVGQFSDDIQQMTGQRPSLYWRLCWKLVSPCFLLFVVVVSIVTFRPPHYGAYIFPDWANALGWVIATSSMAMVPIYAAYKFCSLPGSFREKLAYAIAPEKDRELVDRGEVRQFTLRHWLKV
Chain of human ERG potassium channel (hERG) (Q12809 whole entry): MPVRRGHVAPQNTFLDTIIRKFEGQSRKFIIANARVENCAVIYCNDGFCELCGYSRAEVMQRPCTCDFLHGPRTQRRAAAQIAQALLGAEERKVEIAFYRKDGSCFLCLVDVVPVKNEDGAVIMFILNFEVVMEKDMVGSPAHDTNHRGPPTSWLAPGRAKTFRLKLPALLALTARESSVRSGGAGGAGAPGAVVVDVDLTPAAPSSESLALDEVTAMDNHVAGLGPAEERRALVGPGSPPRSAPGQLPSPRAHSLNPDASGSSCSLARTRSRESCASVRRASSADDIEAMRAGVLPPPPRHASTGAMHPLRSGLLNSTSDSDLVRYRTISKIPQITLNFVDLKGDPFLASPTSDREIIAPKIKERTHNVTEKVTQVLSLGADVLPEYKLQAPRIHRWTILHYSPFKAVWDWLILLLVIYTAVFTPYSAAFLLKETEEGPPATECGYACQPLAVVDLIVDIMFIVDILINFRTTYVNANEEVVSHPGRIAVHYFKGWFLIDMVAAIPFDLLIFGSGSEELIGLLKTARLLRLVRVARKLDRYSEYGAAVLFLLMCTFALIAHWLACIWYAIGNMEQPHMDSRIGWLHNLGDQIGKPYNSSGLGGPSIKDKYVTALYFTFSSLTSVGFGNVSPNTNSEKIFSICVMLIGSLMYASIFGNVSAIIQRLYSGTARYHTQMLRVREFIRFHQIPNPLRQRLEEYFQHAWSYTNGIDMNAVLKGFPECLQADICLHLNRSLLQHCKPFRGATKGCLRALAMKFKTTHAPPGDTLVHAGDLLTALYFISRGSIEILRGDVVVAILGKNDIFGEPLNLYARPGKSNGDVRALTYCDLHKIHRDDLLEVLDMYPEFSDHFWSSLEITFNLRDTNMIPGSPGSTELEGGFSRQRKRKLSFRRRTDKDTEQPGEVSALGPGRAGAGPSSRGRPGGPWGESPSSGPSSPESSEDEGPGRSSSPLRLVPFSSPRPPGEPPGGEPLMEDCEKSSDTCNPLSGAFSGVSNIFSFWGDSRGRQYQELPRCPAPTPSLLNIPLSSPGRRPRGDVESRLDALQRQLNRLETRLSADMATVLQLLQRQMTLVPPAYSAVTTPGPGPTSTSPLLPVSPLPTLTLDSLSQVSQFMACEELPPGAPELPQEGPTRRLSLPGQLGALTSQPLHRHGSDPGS

| IC50 [1, 5] | IC50 [2] | IC50 [3] | SMILES | IC50 ([1]; pIC50 DAT) | IC50 [4] | IC50 [4, 6] |
| --- | --- | --- | --- | --- | --- | --- |
| 151 nM | 0.912 µM | 2400 nM | Clc1ccc(C(c2ccc(Cl)cc2)N2CCC3(CNCCO3)C2)cc1 (stereo not shown) [Example 30, 2-[bis(4-chlorophenyl)methyl]-6-oxa-2,9-diazaspiro[4.5]decane] | – | – | – |
| 186 nM | 6.76 µM | 6030 nM | OC1CNCCC12CCN(C(c1ccc(F)cc1)c1ccc(F)cc1)C2 (stereo not shown) [Example 21, 2-[bis(4-fluorophenyl)methyl]-2,8-diazaspiro[4.5]decan-6-ol] | – | – | – |
| 110 nM | 6.46 µM | 5750 nM | Fc1ccc(C(c2ccc(F)cc2)N2CCC3(CCCNC3)C2)cc1 (stereo not shown) [Example 22, 2-[bis(4-fluorophenyl)methyl]-2,7-diazaspiro[4.5]decane] | – | – | – |
| 537 nM | 11 µM | 295 nM | Fc1ccc(C(c2ccc(F)cc2)N2CCCC3(CCNC3)C2)cc1 (stereo not shown) [Example 24, 7-[bis(4-fluorophenyl)methyl]-2,7-diazaspiro[4.5]decane] | – | – | – |
| 174 nM | 19.5 µM | 4270 nM | O[C@@H]1CCNC[C@@]12CCN(C(c1ccc(F)cc1)c1ccc(F)cc1)C2 (single isomer, unassigned) [Example 13, 2-[bis(4-fluorophenyl)methyl]-2,7-diazaspiro[4.5]decan-10-ol] | – | – | – |
| 316 nM | 0.676 µM | 1230 nM | Clc1ccc(C(c2ccc(Cl)cc2)N2CCC3(CCNCC3)C2)cc1 [Example 28, 2-[bis(4-chlorophenyl)methyl]-2,8-diazaspiro[4.5]decane] | – | – | – |
| 145 nM | 7.41 µM | 3240 nM | COC1CCNCC12CCN(C(c1ccc(F)cc1)c1ccc(F)cc1)C2 (mixture of isomers) [Example 5, 2-[bis(4-fluorophenyl)methyl]-10-methoxy-2,7-diazaspiro[4.5]decane] | – | – | – |
| 302 nM | 17 µM | 7940 nM | O[C@@H]1CCNC[C@]12CCN(C(c1ccc(F)cc1)c1ccc(F)cc1)C2 (single isomer, unassigned) [Example 12, 2-[bis(4-fluorophenyl)methyl]-2,7-diazaspiro[4.5]decan-10-ol] | – | – | – |
| 309 nM | 3.39 µM | 4470 nM | Fc1ccc(C(c2ccc(F)cc2)N2CCC3(CNCCC34OCCO4)C2)cc1 (stereo not shown) [Example 6, 8-[bis(4-fluorophenyl)methyl]-1,4-dioxa-8,12-diazadispiro[4.0.4^6.4^5]tetradecane] | – | – | – |
| 200 nM | 22.4 µM | 1740 nM | O[C@@H]1CCNC[C@@]12CCN(C(c1ccc(F)cc1)c1ccc(F)cc1)C2 (single isomer, unassigned) [Example 14, 2-[bis(4-fluorophenyl)methyl]-2,7-diazaspiro[4.5]decan-10-ol] | – | – | – |
| 204 nM | 4.79 µM | 2000 nM | CO/N=C1\CCNC[C@]12CCN(C(c1ccc(F)cc1)c1ccc(F)cc1)C2 (single isomer, unassigned) [Example 15, (5S or 5R,10E)-2-[bis(4-fluorophenyl)methyl]-N-methoxy-2,7-diazaspiro[4.5]decan-10-imine] | – | – | – |
| 204 nM | 1.78 µM | 3310 nM | O=C1CCNCC12CCN(C(c1ccc(Cl)cc1)c1ccc(Cl)cc1)C2 (stereo not shown) [Example 19, 2-[bis(4-chlorophenyl)methyl]-2,7-diazaspiro[4.5]decan-10-one] | – | – | – |
| 135 nM | 5.25 µM | 2000 nM | Fc1ccc(C(c2ccc(F)cc2)N2CCC3(CCCNC3)CC2)cc1 [Example 26, 9-[bis(4-fluorophenyl)methyl]-2,9-diazaspiro[5.5]undecane] | – | – | – |
| 224 nM | 12.9 µM | 3550 nM | O[C@@H]1CCNC[C@]12CCN(C(c1ccc(F)cc1)c1ccc(F)cc1)C2 (single isomer, unassigned) [Example 11, 2-[bis(4-fluorophenyl)methyl]-2,7-diazaspiro[4.5]decan-10-ol] | – | – | – |
| 115 nM | 4.27 µM | 5010 nM | CN1CCCC2(CCN(C(c3ccc(F)cc3)c3ccc(F)cc3)C2)C1 (stereo not shown) [Example 23, 2-[bis(4-fluorophenyl)methyl]-7-methyl-2,7-diazaspiro[4.5]decane] | – | – | – |
| 363 nM | 1.58 µM | 2400 nM | Fc1ccc(C(c2ccc(F)cc2)N2CCCC3(CCNCC3)C2)cc1 [Example 25, 2-[bis(4-fluorophenyl)methyl]-2,9-diazaspiro[5.5]undecane] | – | – | – |

| SMILES | IC50 [1, 5] | IC50 [2] | IC50 [3] | IC50 ([1]; pIC50 DAT) | IC50 [4] | IC50 [4, 6] |
| --- | --- | --- | --- | --- | --- | --- |
| Fc1ccc(C(c2ccc(F)cc2)N2CCC3(CC2)CNCCS3)cc1 [Example 32, 9-[bis(4-fluorophenyl)methyl]-1-thia-4,9-diazaspiro[5.5]undecane] | – | 2.34 µM | 2450 nM | 58.9 nM | – | – |
| Fc1ccc(C(c2ccc(F)cc2)N2CCC3(CCNCC3)C2)cc1 [Example 27, 2-[bis(4-fluorophenyl)methyl]-2,8-diazaspiro[4.5]decane] | 148 nM | 3.47 µM | 1700 nM | – | 2.51 µM | – |
| Fc1ccc(C(c2ccc(F)cc2)N2CC[C@]3(CNCCC3(F)F)C2)cc1 (single isomer, unassigned) [Example 17, (5S or 5R)-2-[bis(4-fluorophenyl)methyl]-10,10-difluoro-2,7-diazaspiro[4.5]decane] | – | 13.2 µM | 1070 nM | 22.9 nM | 3.16 µM | – |
| ON=C1CCNCC12CCN(C(c1ccc(F)cc1)c1ccc(F)cc1)C2 (single isomer, unassigned) [Example 16, N-[(5S or 5R,10E)-2-[bis(4-fluorophenyl)methyl]-2,7-diazaspiro[4.5]decan-10-ylidene]hydroxylamine] | – | 6.61 µM | 6310 nM | 49 nM | 2.51 µM | – |
| O=C1CCNC[C@]12CCN(C(c1ccc(F)cc1)c1ccc(F)cc1)C2 (single isomer, unassigned) [Example 10, (5S or 5R)-2-[bis(4-fluorophenyl)methyl]-2,7-diazaspiro[4.5]decan-10-one dihydrochloride salt] | 148 nM | 15.5 µM | 6460 nM | – | – | 5.01 µM |
| O=C1CCNC[C@@]12CCN(C(c1ccc(F)cc1)c1ccc(F)cc1)C2 (single isomer, unassigned) [Example 9, (5R or 5S)-2-[bis(4-fluorophenyl)methyl]-2,7-diazaspiro[4.5]decan-10-one dihydrochloride salt] | 263 nM | 10.7 µM | 2400 nM | – | – | 5.01 µM |
| O=C1CCNC[C@@]12CCN(C(c1ccc(F)cc1)c1ccc(F)cc1)C2 (single isomer, unassigned) [Example 7, (5R or 5S)-2-[bis(4-fluorophenyl)methyl]-2,7-diazaspiro[4.5]decan-10-one] | 162 nM | 14.1 µM | 2140 nM | – | – | – |
| FC1=CCNC[C@]12CCN(C(c1ccc(F)cc1)c1ccc(F)cc1)C2 (single isomer, unassigned) [Example 18, (5S or 5R)-2-[bis(4-fluorophenyl)methyl]-10-fluoro-2,7-diazaspiro[4.5]dec-9-ene] | – | 9.33 µM | 1860 nM | 30.2 nM | 3.16 µM | – |
| OC1CCNCC12CCN(C(c1ccc(F)cc1)c1ccc(F)cc1)C2 (stereo not shown) [Example 3, 2-[bis(4-fluorophenyl)methyl]-2,7-diazaspiro[4.5]decan-10-ol] | – | 12.9 µM | 4470 nM | 70.8 nM | 2.51 µM | – |
| O=C1CCNC[C@]12CCN(C(c1ccc(F)cc1)c1ccc(F)cc1)C2 (single isomer, unassigned) [Example 8, (5S or 5R)-2-[bis(4-fluorophenyl)methyl]-2,7-diazaspiro[4.5]decan-10-one] | 132 nM | 7.41 µM | 1380 nM | – | – | – |
| Fc1ccc(C(c2ccc(F)cc2)N2CCC3(CCNCC34OCCO4)C2)cc1 (stereo not shown) [Example 20, 8-[bis(4-fluorophenyl)methyl]-1,4-dioxa-8,13-diazadispiro[4.0.4^6.4^5]tetradecane] | – | 2.09 µM | 2000 nM | 28.8 nM | – | – |
